Experimental data from publication PMC5052559, “A fragment-based approach applied to a highly flexible target: Insights and challenges towards the inhibition of HSP70 isoforms” (Scientific Reports, 2016).

What was measured:
WT HSC70-NBD = biological target: T1, WT HSC70-NBD (Homo sapiens, UniProt P11142); assay: SPR binding to wild-type HSC70-NBD; details: for Kd / Kd WT HSC70-NBD: 25 °C; for LE (ligand efficiency): calculated using the SPR Kd on WT HSC70-NBD; for increase in affinity compared to parent fragment: SPR Kd, 23 vs 10, 24 vs 19
T1 construct: WT HSPA8 (HSC70) residues 1 to 381; GST (N, cleaved yes); made in house; host or cells: E. coli BL21-AI (expressed as described for FL-HSP72)
T1 sequence (P11142 1-381): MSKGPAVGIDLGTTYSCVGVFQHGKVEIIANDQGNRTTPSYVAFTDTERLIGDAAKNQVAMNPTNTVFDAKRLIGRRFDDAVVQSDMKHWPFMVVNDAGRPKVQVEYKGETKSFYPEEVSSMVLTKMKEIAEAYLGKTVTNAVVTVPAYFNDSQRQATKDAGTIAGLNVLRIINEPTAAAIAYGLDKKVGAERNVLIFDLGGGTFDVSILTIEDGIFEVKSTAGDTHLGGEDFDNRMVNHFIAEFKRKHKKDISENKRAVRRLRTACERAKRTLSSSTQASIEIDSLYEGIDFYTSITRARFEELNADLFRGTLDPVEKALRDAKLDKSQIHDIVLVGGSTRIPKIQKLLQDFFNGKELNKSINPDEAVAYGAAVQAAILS
Protocol: (§1) SPR experiments were carried out using a Biacore T200 (GE Healthcare) at 25 °C. Amine coupling chemistry was used to immobilise the HSC70 NBD domain and S275W, S275F and S275A HSC70-NBD mutant proteins on a carboxymethyl-5′-dextran (CM5) sensor chip. The chip’s surface was activated with a 10 min injection of a 1:1 mixture of 100 mM N-hydroxysuccinimide and 400 mM 1-ethyl-3-(3-dimethylaminopropyl)-carbodiimide. […] The remaining activated groups on the surface were blocked with a 7 min injection of 1 M ethanolamine at pH 8.5. […] Flow cell one was left unmodified as the reference surface.
(§2) In addition, a DMSO correction curve, prepared as described in the GE manual, was used to correct the effects of the solvent on signal intensity. Raw SPR data from the single point screen was processed and analysed using Pipeline Pilot version 8.0.1.500[37]. Firstly, the reported binding level for each fragment was corrected by subtraction of the buffer blank.
(§3) The initial fragment hits were further investigated in a three-point concentration-response experiment against freshly immobilised WT HSC70-NBD and the S275W HSC70-NBD mutants using the same experimental protocol as for the primary screen. Compound dilutions of 50, 100 and 200 μM were generated using the ECHO 550.

S275W HSC70-NBD = biological target: T2, S275W HSC70-NBD (Homo sapiens, UniProt P11142, S275W); assay: SPR binding to S275W HSC70-NBD mutant
T2 construct: WT HSPA8 (HSC70) residues 1 to 381; GST (N, cleaved yes); made in house; host or cells: E. coli BL21-AI (expressed as described for FL-HSP72)
T2 sequence (P11142 1-381 S275W): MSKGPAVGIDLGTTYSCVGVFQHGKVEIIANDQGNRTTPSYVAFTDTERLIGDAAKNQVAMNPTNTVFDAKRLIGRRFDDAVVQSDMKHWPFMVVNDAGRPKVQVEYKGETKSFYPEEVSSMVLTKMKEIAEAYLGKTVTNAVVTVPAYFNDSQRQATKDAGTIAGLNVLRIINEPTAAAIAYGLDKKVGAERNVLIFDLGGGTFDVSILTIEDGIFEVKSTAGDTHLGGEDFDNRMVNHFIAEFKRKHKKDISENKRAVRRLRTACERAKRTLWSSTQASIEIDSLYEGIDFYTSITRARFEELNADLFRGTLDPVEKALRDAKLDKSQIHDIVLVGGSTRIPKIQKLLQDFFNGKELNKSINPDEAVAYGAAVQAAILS
Protocol: as §1, §2, §3

S275F HSC70-NBD = biological target: T3, S275F HSC70-NBD (Homo sapiens, UniProt P11142, S275F); assay: SPR binding to S275F HSC70-NBD mutant
T3 construct: WT HSPA8 (HSC70) residues 1 to 381; GST (N, cleaved yes); made in house; host or cells: E. coli BL21-AI (expressed as described for FL-HSP72)
T3 sequence (P11142 1-381 S275F): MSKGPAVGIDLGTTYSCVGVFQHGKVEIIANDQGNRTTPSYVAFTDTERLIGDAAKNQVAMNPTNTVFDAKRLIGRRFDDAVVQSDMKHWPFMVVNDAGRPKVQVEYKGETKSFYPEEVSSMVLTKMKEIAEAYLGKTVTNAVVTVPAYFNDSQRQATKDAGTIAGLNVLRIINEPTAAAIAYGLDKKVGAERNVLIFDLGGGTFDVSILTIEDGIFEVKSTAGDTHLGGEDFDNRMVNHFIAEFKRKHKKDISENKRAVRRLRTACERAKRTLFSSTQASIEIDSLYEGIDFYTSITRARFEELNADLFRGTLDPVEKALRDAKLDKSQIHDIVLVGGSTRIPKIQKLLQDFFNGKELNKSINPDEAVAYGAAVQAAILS
Protocol: SPR experiments were carried out using a Biacore T200 (GE Healthcare) at 25 °C. Amine coupling chemistry was used to immobilise the HSC70 NBD domain and S275W, S275F and S275A HSC70-NBD mutant proteins on a carboxymethyl-5′-dextran (CM5) sensor chip. The chip’s surface was activated with a 10 min injection of a 1:1 mixture of 100 mM N-hydroxysuccinimide and 400 mM 1-ethyl-3-(3-dimethylaminopropyl)-carbodiimide. The HSC70 proteins (70 μg/mL in 10 mM sodium acetate, 750 μM ADP, pH 5.0) were immobilised on the surface over a 10 min injection period. The remaining activated groups on the surface were blocked with a 7 min injection of 1 M ethanolamine at pH 8.5. For all the above procedures the flow rate was maintained at 10 μL/min and a 1x phosphate buffered saline running buffer (PBS running buffer: 10 mM NaHPO4/NaH2PO4 pH 7.4, 2.7 mM KCl, 137 mM NaCl) was used during immobilisation. Approximately ~13,000 response units (RU) of protein could be routinely captured on the CM5 chip on flow cells two to four. Flow cell one was left unmodified as the reference surface. Our in-house fragment library of 1962 fragments at a stock concentration of 100 mM in 100% (v/v) was screened. SPR screening plates were prepared by dispensing of 0.1 μL of each fragment in 384-well polypropylene V-bottomed plates (Greiner) using an ECHO 550 acoustic liquid dispenser (Labcyte) followed by addition of fresh DMSO and running buffer to give a final fragment concentration of 125 μM in 5% (v/v) DMSO in an assay volume of 80 μL.
The full fragment screen was carried out against freshly immobilised WT-HSC70 NBD and the S275W and S275F HSC70-NBD mutants, using the same experimental setting as for the clean screen and a final fragment concentration of 125 μM. Injections of running buffer and of 125 μM adenosine, which was used as a positive control to monitor the health of the protein, were carried out at intervals of 35 cycles throughout the screen. In addition, a DMSO correction curve, prepared as described in the GE manual, was used to correct the effects of the solvent on signal intensity. Raw SPR data from the single point screen was processed and analysed using Pipeline Pilot version 8.0.1.500[37]. Firstly, the reported binding level for each fragment was corrected by subtraction of the buffer blank. Secondly, the values were corrected for the molecular weight of each fragment and the binding was normalised to the binding level observed for the closest adenosine control. […] However, fragments with a binding level exceeding two times the theoretical Rmax were excluded, as we considered this an indication of superstoichiometric binding. Finally, fragments showing preferred binding to wild-type HSC70-NBD versus the HSC70-NBD mutants with a blocked adenine sub pocket were identified by plotting the binding levels of the fragments to wild-type HSC70-NBD against the binding levels of the respective mutant HSC70-NBD variants and added to the primary hit list. In total this procedure yielded 54 initial fragment hits.

HSC70-NBD S275A mutant = biological target: T4, HSC70-NBD S275A mutant (Homo sapiens, UniProt P11142, S275A); assay: SPR binding to S275A HSC70-NBD mutant; details: n = 3
T4 construct: WT HSPA8 (HSC70) residues 1 to 381; GST (N, cleaved yes); made in house; host or cells: E. coli BL21-AI (expressed as described for FL-HSP72)
T4 sequence (P11142 1-381 S275A): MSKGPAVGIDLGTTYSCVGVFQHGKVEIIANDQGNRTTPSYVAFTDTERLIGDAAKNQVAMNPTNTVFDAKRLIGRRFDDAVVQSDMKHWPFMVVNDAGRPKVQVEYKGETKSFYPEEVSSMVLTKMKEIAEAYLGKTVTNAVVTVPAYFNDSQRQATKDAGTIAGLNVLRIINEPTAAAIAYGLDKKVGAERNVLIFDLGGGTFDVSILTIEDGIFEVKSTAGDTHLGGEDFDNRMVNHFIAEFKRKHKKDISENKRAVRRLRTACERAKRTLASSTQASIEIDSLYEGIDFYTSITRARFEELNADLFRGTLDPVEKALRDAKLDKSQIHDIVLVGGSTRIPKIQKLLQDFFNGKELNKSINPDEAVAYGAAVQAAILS
Protocol: SPR experiments were carried out using a Biacore T200 (GE Healthcare) at 25 °C. Amine coupling chemistry was used to immobilise the HSC70 NBD domain and […], […] and […] HSC70-NBD mutant proteins on a carboxymethyl-5'-dextran (CM5) sensor chip. […] The remaining activated groups on the surface were blocked with a 7 min injection of 1 M ethanolamine at pH 8.5. For all the above procedures the flow rate was maintained at 10 μL/min and a 1x phosphate buffered saline running buffer (PBS running buffer: 10 mM NaHPO4/NaH2PO4 pH 7.4, 2.7 mM KCl, 137 mM NaCl) was used during immobilisation. Approximately ~13,000 response units (RU) of protein could be routinely captured on the CM5 chip on flow cells two to four. Flow cell one was left unmodified as the reference surface. Our in-house fragment library of 1962 fragments at a stock concentration of 100 mM in 100% (v/v) was screened. SPR screening plates were prepared by dispensing of 0.1 μL of each fragment in 384-well polypropylene V-bottomed plates (Greiner) using an ECHO 550 acoustic liquid dispenser (Labcyte) followed by addition of fresh DMSO and running buffer to give a final fragment concentration of 125 μM in 5% (v/v) DMSO in an assay volume of 80 μL. The initial fragment hits were further investigated in a three-point concentration-response experiment against freshly immobilised WT HSC70-NBD and the […] HSC70-NBD mutants using the same experimental protocol as for the primary screen. Compound dilutions of 50, 100 and 200 μM were generated using the ECHO 550. A confirmed hit was defined as a fragment giving greater than 10% response compared to adenosine and these were prioritised on the basis of their concentration response, ratio of experimental and theoretical Rmax, and shape of the sensorgrams, and expected fast on/fast off binding kinetics. […] HSC70-NBD mutant. […] Nucleotides were dissolved in double distilled water to give 10 mM stock solutions, then diluted 40X with DMSO and tested using a concentration range between 0.0625 μM and 2.5 μM.

[1] = SPR, mean ± standard deviation or standard error, triplicate unless marked duplicate/single
[2] = SPR, mean ± SD, No binding = binding level ≤10RU at 1mM

| SMILES | Kd (WT HSC70-NBD; [1]) [µM] | LE (ligand efficiency) (WT HSC70-NBD) | also measured |
| --- | --- | --- | --- |
| Cc1ccc2ncnc(N)c2c1 [Compound 8] | 1400 ± 100 | 0.33 | binding to S275W HSC70-NBD mutant (in words) (S275W HSC70-NBD): reduced binding and a low degree of saturation; binding to S275F HSC70-NBD mutant (in words) (S275F HSC70-NBD): reduced binding and a low degree of saturation |
| OC[C@H]1C[C@@H](Nc2ncnc3cccc(OCc4ccccc4)c23)[C@H](O)[C@@H]1O [Compound 28] | 370 | 0.17 | Kd S275W HSC70-NBD (S275W HSC70-NBD; single measurement): No binding |
| Nc1ncnc2[nH]cnc12 [Compound 5, adenine, reference compound] |  |  | Kd WT HSC70-NBD (WT HSC70-NBD; [2]): No binding |
| O=c1ccn([C@@H]2O[C@H](COP(=O)(O)OP(=O)(O)O)[C@@H](O)[C@H]2O)c(=O)[nH]1 [UDP, reference compound] |  |  | Kd WT HSC70-NBD (WT HSC70-NBD; [2]): No binding |
| CNc1ncnc2ccccc12 [Compound 20] | 4800 ± 1100 |  |  |
| Cc1ccc2c(N)ncnc2c1 [Compound 13, 7-methyl 4-aminoquinazoline] | 800 |  |  |
| Nc1ncnc2c1nc(N)n2[C@@H]1O[C@H](CO)[C@@H](O)[C@H]1O [Compound 4, 8-aminoadenosine, reference compound] |  | 0.35 | Kd (WT HSC70-NBD; [2]): 8 µM |
| Cc1cn([C@H]2C[C@H](O)[C@@H](COP(=O)(O)OP(=O)(O)O)O2)c(=O)[nH]c1=O [TDP, reference compound] |  |  | Kd WT HSC70-NBD (WT HSC70-NBD; [2]): No binding |
| COc1ccc2ncnc(N)c2c1 [Compound 16, 6-methoxy 4-aminoquinazoline] | 1000 |  |  |
| Nc1ccn([C@@H]2O[C@H](COP(=O)(O)OP(=O)(O)O)[C@@H](O)[C@H]2O)c(=O)n1 [CDP, reference compound] |  |  | Kd WT HSC70-NBD (WT HSC70-NBD; [2]): No binding |
| Cc1cccc2ncnc(N)c12 [Compound 12] | 12000 |  |  |
| Nc1ncnc2c1ncn2[C@@H]1O[C@H](CO)[C@@H](O)[C@H]1O [Adenosine, adenosine, reference compound] |  | 0.28 | Kd (WT HSC70-NBD; [2]): 165 µM; binding to S275W HSC70-NBD mutant (in words) (S275W HSC70-NBD): abolished binding; binding to S275F HSC70-NBD mutant (in words) (S275F HSC70-NBD): abolished binding; Kd (HSC70-NBD S275A mutant): 1800 ± 520 µM |
| O=c1[nH]cnc2c1oc1ccccc12 [Compound 7] | 1700 ± 600 | 0.27 | binding to S275W HSC70-NBD mutant (in words) (S275W HSC70-NBD): reduced binding and a low degree of saturation; binding to S275F HSC70-NBD mutant (in words) (S275F HSC70-NBD): reduced binding and a low degree of saturation |
| COc1cccc2ncnc(N[C@@H]3C[C@H](CO)[C@@H](O)[C@H]3O)c12 [Compound 26] | 1040 |  |  |
| Nc1nc2c(ncn2[C@@H]2O[C@H](COP(=O)(O)OP(=O)(O)O)[C@@H](O)[C@H]2O)c(=O)[nH]1 [GDP, reference compound] |  | 0.18 | Kd (WT HSC70-NBD; [2]): 223 µM |
| Nc1nc2ncnc(N)c2[nH]1 [Compound 6, 8-aminoadenine, reference compound] |  | 0.34 | Kd (WT HSC70-NBD; [2]): 2100 µM |
| Nc1ncnc2ccccc12 [Compound 10] | 2100 |  |  |
| COc1cccc2ncnc(N)c12 [Compound 15] | 830 |  |  |
| Nc1ncnc2c1ncn2[C@@H]1O[C@H](COP(=O)(O)OP(=O)(O)O)[C@@H](O)[C@H]1O [ADP, reference compound] |  | 0.31 | Kd (WT HSC70-NBD; [2]): 0.71 ± 0.32 µM; binding to S275W HSC70-NBD mutant (in words) (S275W HSC70-NBD): abolished binding; binding to S275F HSC70-NBD mutant (in words) (S275F HSC70-NBD): abolished binding; Kd (HSC70-NBD S275A mutant): 5.6 ± 2.4 µM |
| COc1ccc2c(N)ncnc2c1 [Compound 17] | 850 |  |  |
| COc1cccc2c(N)ncnc12 [Compound 18] | 2000 |  |  |
| N#Cc1ccc(COC[C@H]2C[C@@H](Nc3ncnc4cccc(OCc5ccccc5)c34)[C@H](O)[C@@H]2O)cc1 [Compound 29] | 2000 | 0.10 | Kd (S275W HSC70-NBD; single measurement): 2000 µM |
| COc1cc2ncnc(N)c2cc1OC [Compound 19] | 830 |  |  |
| COc1cc2ncnc(N[C@@H]3C[C@H](CO)[C@@H](O)[C@H]3O)c2cc1OC [Compound 24] | 250 |  | increase in affinity compared to parent fragment (WT HSC70-NBD): three-fold |
| Cc1nc(N)c2ccccc2n1 [Compound 11] |  |  | binding to WT HSC70-NBD (in words) (WT HSC70-NBD; SPR): no detectable affinity |
| CN1N=C(N)c2c[nH]c3ncnc1c23 [Compound 3] | 3500 ± 600 |  |  |
| OC[C@H]1C[C@@H](Nc2ncnc3ccccc23)[C@H](O)[C@@H]1O [Compound 23] |  |  | increase in affinity compared to parent fragment (WT HSC70-NBD): 7 fold; Kd (WT HSC70-NBD; [2]): 310 ± 100 µM |
| Cc1cccc2c(N)ncnc12 [Compound 14] | 2900 |  |  |
| OC[C@H]1C[C@@H](Nc2ncnc3cccc(OCc4ccc(Cl)c(Cl)c4)c23)[C@H](O)[C@@H]1O [Compound 27] | 850 | 0.14 | Kd (S275W HSC70-NBD; single measurement): 5000 µM |
| Nc1ncnc2c1ncn2[C@@H]1O[C@H](COP(=O)(O)OP(=O)(O)OP(=O)(O)O)[C@@H](O)[C@H]1O [ATP, reference compound] |  | 0.29 | Kd (WT HSC70-NBD; [2]): 0.33 µM; Kd (HSC70-NBD S275A mutant): 2.1 µM |
